pIC50: −log10 of the molar value. Counter-ions that a name gives are not always drawn.

This experiment has as its target T1, Na^+/H^+ exchange in cells (Rattus norvegicus, UniProt P26431).
T1 construct: The cells were dissociated by gentle strokes, and the resulting suspension was filtrated through six layers of surgical gauze; from tissue; host or cells: thymus cells (thymocytes) of a male SD rat
Briefly: Inhibitory activity on Na^+/H^+ exchange in cells. The experiment is classed as cell-based. The settings on record: rat (male SD) thymus cells; initial increase in intracellular pH (BCECF fluorescence) after adding NaCl (final 100 mM), 37° C. As to the method:
[2] Inhibitory activity on Na^+/H^+ exchange in cells
Procedure was carried out according to a similar manner to the method described in Enzymology 173, 777 (1989).
Cell preparation: One male SD strain rat weighing 250-300 g was sacrificed with the blow on the head. Then, the thymus was removed into ice-cold NaCl medium (140 mM sodium chloride, 1 mM potassium chloride, 1 mM calcium chloride, 1 mM magnesium chloride, 10 mM glucose and 20 mM N-2-hydroxyethylpiperazine-N′-2-ethanesulfonic acid (HEPES)—pH 7.3), cut in small fragments, and transferred to glass homogenizer. […]
Assay: The pellet was washed with Na-free buffer (140 mM Trimethyl ammonium, 4 mM KCl, 1 mM CaCl2, 1 mM MgSO4, 1 mM NaH2PO4, 18 mM glucose, 20 mM HEPES (pH 7.4)), then incubated with 16 μM of acetoxymethyl ester of 2′, 7′-bis(2-carboxyethyl)-5,6-carboxyfluorescein (BCECF-AM, Calbiochem Co.) and 20 mM NH4Cl at 37° C. for 30 minutes. […] Intracellular pH was measured at 37° C. with a spectrofluorometer (FS100, Kowa company, Japan) using the ratio of the emission (530 nm) obtained at 490 nm excitation wavelengths. […] The BCECF fluorescence signals were calibrated by titration with 1 M 2-(N-morpholino)ethanesulfonic acid (MES) after permeabilization of the cells with 0.5% Triton.

T1 sequence (P26431 whole entry): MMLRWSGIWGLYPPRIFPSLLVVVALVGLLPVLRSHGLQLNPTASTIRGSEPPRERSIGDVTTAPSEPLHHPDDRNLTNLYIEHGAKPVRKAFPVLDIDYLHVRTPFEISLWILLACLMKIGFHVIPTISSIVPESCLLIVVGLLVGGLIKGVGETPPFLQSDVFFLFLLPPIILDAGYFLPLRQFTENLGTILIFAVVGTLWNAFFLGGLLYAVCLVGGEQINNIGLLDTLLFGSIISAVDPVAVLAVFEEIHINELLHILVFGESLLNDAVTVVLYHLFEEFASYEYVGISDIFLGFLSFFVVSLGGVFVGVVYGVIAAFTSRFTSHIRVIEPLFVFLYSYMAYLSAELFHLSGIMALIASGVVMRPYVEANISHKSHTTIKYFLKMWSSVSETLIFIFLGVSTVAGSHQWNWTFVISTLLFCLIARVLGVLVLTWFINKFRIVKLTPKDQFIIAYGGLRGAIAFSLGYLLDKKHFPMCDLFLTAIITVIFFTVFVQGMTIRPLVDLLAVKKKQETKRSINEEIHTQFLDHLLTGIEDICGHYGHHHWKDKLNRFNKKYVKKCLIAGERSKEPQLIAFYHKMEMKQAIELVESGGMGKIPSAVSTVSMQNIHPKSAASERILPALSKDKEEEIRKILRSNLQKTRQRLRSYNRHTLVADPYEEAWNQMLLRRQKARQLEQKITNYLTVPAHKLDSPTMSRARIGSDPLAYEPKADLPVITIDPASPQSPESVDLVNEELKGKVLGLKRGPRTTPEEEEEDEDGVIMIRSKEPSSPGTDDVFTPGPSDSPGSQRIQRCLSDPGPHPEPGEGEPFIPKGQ

In the case of `N=C(N)NC(=O)C1=Cc2cccc(/C=C/C(=O)O)c2OCC1` [(a), [9-[(E)-(2-Carboxyvinyl)]-2,3-dihydro-1-benzoxepin-4-carbonyl]guanidine hydrochloride], the negative-log IC50 (pIC50) is more than 7.00.

The record behind these values is patent US6346527B1, “Guanidine derivatives” (Fujisawa Pharmaceutical Co., Ltd., priority 1998, dated 2002).
